From PMC10253357, “Acceptors and Effectors Alter Substrate Inhibition Kinetics of a Plant Glucosyltransferase NbUGT72AY1 and Its Mutants” (International Journal of Molecular Sciences, 2023) come the findings set out here.

Data set [1] addresses T1, NbUGT72AY1 (Nicotiana benthamiana, UniProt A0A8K1ZRH3).
T1 construct: pGEX-4T-1 vector (GST fusion expected), expressed in E. coli BL21(DE3) pLysS
T1 sequence (A0A8K1ZRH3 1-477): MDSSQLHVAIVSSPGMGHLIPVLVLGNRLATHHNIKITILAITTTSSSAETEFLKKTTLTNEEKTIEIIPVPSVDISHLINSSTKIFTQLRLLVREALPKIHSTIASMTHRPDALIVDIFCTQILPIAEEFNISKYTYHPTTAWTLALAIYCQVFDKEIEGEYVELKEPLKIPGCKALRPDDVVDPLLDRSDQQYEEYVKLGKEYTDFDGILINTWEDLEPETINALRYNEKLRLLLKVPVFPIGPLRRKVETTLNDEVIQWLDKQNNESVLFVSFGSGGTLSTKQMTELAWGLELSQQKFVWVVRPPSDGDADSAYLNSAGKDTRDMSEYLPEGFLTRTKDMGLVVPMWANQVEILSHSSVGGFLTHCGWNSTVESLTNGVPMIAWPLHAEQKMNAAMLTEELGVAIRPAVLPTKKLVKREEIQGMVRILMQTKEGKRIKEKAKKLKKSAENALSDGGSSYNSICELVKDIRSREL
The data set is described as follows: UDP-Glo glucosyltransferase assay, UDP release. The data set is classed as biochemical. The note with it: UDP-glucose donor, Tris pH 7.5, 40 °C.

Data set [2] addresses T1, NbUGT72AY1. The data set is described as follows: UDP-Glo glucosyltransferase assay, UDP release. The data set is classed as biochemical. The note with it: UDP-glucose donor; Tris pH 7.5, 40 °C; fit with substrate inhibition and Hill coefficients.
Data set [3] deals with T1, NbUGT72AY1. The experiment in a line: UDP-Glo assay with vanillin, effector added. The class given is biochemical. The note with it: vanillin acceptor, UDP-glucose donor, Tris pH 7.5, 40 °C.
In another data set the target is T2, chimera A.
T2 construct: gene UGT72AY1; NbUGT72AY1 (MT945401) with a segment of StUGT72AY2 from Solanum tuberosum; pGEX-4T-1, E. coli
The data set is described as follows: UDP-Glo glucosyltransferase assay, UDP release. The class given is biochemical, Nicotiana benthamiana. The conditions noted are these: substrate inhibition constant, uncompetitive model with Hill coefficients; UDP-glucose donor; Tris pH 7.5, 40 °C.

Substrate in data set [4]: COc1ccccc1O
The data set is described as follows: UDP-Glo glucosyltransferase assay, UDP release. The conditions noted are these: UDP-glucose donor, Tris pH 7.5, 40 °C, fit with substrate inhibition and Hill coefficients. The data set is classed as biochemical, Nicotiana benthamiana.

Substrate in data set [5]: O=c1c(O)c(-c2ccc(O)cc2)oc2cc(O)cc(O)c12
The experiment in a line: UDP-Glo glucosyltransferase assay, UDP release. The data set is classed as biochemical, Nicotiana benthamiana. The note with it: UDP-glucose donor, Tris pH 7.5, 40 °C, two products (3-O- and 7-O-glucoside).

Substrate in data set [6]: Oc1ccc(O)cc1
The data set is described as follows: UDP-Glo glucosyltransferase assay, UDP release. The class given is biochemical, Nicotiana benthamiana. The note with it: UDP-glucose donor, Tris pH 7.5, 40 °C, Michaelis-Menten, no substrate inhibition.

The mark [7] stands for this setting: substrate inhibition constant, uncompetitive model with Hill coefficients.
[8] abbreviates: substrate inhibition constant, complete (Vi = 0), uncompetitive model with Hill coefficients.

At NbUGT72AY1 [1] (setting [7]), `CCc1ccc(O)c(OC)c1` [ethylguaiacol] returned a Ki of 345 ± 58 µM. Still for that read-out and setting: the result for `C=CCc1ccc(O)c(OC)c1` [eugenol] reads 62 ± 17 µM. As for `COc1ccccc1O` [guaiacol], the Ki at NbUGT72AY1 [1] (setting [8]) is given as 1022 ± 69 µM.

Broadly, the Km is the concentration of substrate that gives half-maximal velocity. At NbUGT72AY1 [1] (setting [8]), `Cc1ccccc1O` [o-cresol] returned a Ki of 1368 ± 165 µM. The Michaelis-Menten constant (Km) on NbUGT72AY1 [2] is 17 ± 9 µM.

For the molecule `CCCCCCCC/C=C\CCCCCCCC(=O)O` [oleic acid], the “UDP-Glo assay with vanillin, effector added” value (shortened to “UDP-Glo assay with vanillin”) at NbUGT72AY1 [3] (effector at 20 and 100 µM) was “increased catalytic activity of NbUGT72AY1, noted after addition of stearic and oleic acid”. Regarding `COc1cc2ccc(=O)oc2cc1O` [scopoletin], at NbUGT72AY1 [1] (substrate inhibition constant (partial uncompetitive model with Hill coefficients)), the Ki was 16 ± 1 µM. As to `COc1cc(/C=C/C=O)cc(OC)c1O` [sinapaldehyde], the Ki on NbUGT72AY1 [1] (setting [8]) was 1398 ± 283 µM; on chimera A, 1437 ± 138 µM. Turning to `CCCCCCCCCCCCCCCCCC(=O)O` [stearic acid], the “UDP-Glo assay with vanillin” value on NbUGT72AY1 [3] (effector at 20 and 100 µM) was “Saturated stearic acid promoted the glycosylation activity of NbUGT72AY1 with vanillin”. As for `COc1cc(C=O)ccc1O` [vanillin], the Ki on NbUGT72AY1 [1] (substrate inhibition constant, partial uncompetitive model with Hill coefficients (n = 1, x = 2), no effector) came to 117 ± 24 µM. Consider `CC1=CCCC(C)(C)C1/C=C/C(C)O` (stereo not drawn) [α-ionol], for which the “UDP-Glo assay with vanillin” value at NbUGT72AY1 [3] (effector at 100 and 200 µM) is “addition of α- and β-ionol to the reaction resulted in a concentration-dependent increase in Ki”. Regarding `CC1=C(/C=C/C(C)O)C(C)(C)CCC1` (stereo not drawn) [β-ionol], the “UDP-Glo assay with vanillin” value at NbUGT72AY1 [3] (effector at 100 and 200 µM) was “addition of α- and β-ionol to the reaction resulted in a concentration-dependent increase in Ki”.

B1: NbUGT72AY1 (Nicotiana benthamiana) (protein)
chain: T1 sequence (A0A8K1ZRH3 1-477)
notes: pGEX-4T-1 vector (GST fusion expected), expressed in E. coli BL21(DE3) pLysS
As for B1, the Km in data set [4] was 179 ± 44 µM; in data set [5], 15 ± 3 µM; in data set [6], 331 ± 25 µM.
